# Measurements taken from the supplement of paper PMC10307832.
# What was measured:
# [1] = compound: CC(C)CCN1c2nc(Nc3cc(F)c(O)c(F)c3)ncc2N(C)C(=O)C1C [BI-D1870] + NC(=O)Nc1cc(-c2cccc(F)c2)sc1C(=O)N[C@H]1CCCNC1 [AZD7762] (partner 0.2 µM); test: relative viability (nuclei count vs DMSO), 5 days (fraction); higher = more cells survive
# Summary of the method: (§1)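 Relative viability is defined as nuclei in treated wells over nuclei in vehicle wells. Duplicate plates were run and medians reported. Lung cancer cell lines in 1536-well plates were dosed by pin tool one day after seeding, with one drug or with a fixed anchor-drug dose plus five library-drug doses (not always all listed) in √10 steps, and nuclei were counted after 5 days.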
# [2] = compound: CC(C)CCN1c2nc(Nc3cc(F)c(O)c(F)c3)ncc2N(C)C(=O)C1C [BI-D1870] + O=C(CCCCCCC(=O)Nc1ccccc1)NO [Vorinostat] (partner 1 µM); test: as above
# Summary of the method: as §1
Cell Line,relative viability ([1]; first compound 0.04 µM),relative viability ([1]; first compound 0.1265 µM),relative viability ([1]; first compound 0.4 µM),relative viability ([1]; first compound 1.265 µM),relative viability ([1]; first compound 4 µM),relative viability ([2]; first compound 0.04 µM),relative viability ([2]; first compound 0.1265 µM),relative viability ([2]; first compound 0.4 µM),relative viability ([2]; first compound 1.265 µM),relative viability ([2]; first compound 4 µM)
201T,0.663,0.534,0.602,0.618,0.696,1.01,0.91,0.922,0.914,0.932
A-427,0.86,0.717,0.848,1.01,0.796,0.917,0.843,0.817,0.807,0.501
ABC-1,0.805,0.82,0.796,0.791,0.895,1.2,1.01,1.07,1.2,0.535
BEN,0.699,0.574,0.633,0.961,0.67,0.538,0.504,0.595,0.628,0.534
CAL-12T,0.749,0.546,0.637,0.599,0.668,1.07,0.675,0.716,0.666,0.352
COR-L23,–,–,–,–,–,0.615,0.402,0.494,0.5,0.269
COR-L 105,–,–,–,–,–,0.804,0.837,0.77,0.875,0.765
ChaGo-K-1,0.956,0.81,0.89,0.911,0.834,0.8,0.703,0.711,0.72,0.641
EKVX,0.632,0.72,0.61,0.742,0.701,0.779,0.707,0.64,0.814,0.703
EMC-BAC-2,1.21,1.11,1.05,1.38,1.02,0.495,0.519,0.397,0.461,0.413
EPLC-272H,0.207,0.17,0.257,0.21,0.255,0.523,0.663,0.484,0.297,0.148
H3255,0.956,0.965,0.851,1.07,0.892,0.88,0.816,0.761,0.889,0.802
HARA,0.442,0.307,0.263,0.318,0.297,0.542,0.405,0.641,0.614,0.495
HCC-15,0.725,1.18,1.04,1.17,1.08,0.81,0.782,0.786,0.987,0.678
HCC-44,1.02,0.988,1,1.04,1.04,1.14,1.07,1.16,1.14,1.14
HCC-78,0.677,0.593,0.528,0.815,0.598,0.438,0.408,0.392,0.497,0.381
HCC-366,0.389,0.273,0.202,0.662,0.477,0.502,0.331,0.294,0.316,0.1
